{"source": "ChEMBL document CHEMBL1136052", "about": "“Identification of novel cyclooxygenase-2 selective inhibitors using pharmacophore models” (J Med Chem, 2002)", "key": {"[1]": {"target": "Prostaglandin G/H synthase 1 (Homo sapiens) (UniProt P23219)", "sequence (P23219 whole entry)": "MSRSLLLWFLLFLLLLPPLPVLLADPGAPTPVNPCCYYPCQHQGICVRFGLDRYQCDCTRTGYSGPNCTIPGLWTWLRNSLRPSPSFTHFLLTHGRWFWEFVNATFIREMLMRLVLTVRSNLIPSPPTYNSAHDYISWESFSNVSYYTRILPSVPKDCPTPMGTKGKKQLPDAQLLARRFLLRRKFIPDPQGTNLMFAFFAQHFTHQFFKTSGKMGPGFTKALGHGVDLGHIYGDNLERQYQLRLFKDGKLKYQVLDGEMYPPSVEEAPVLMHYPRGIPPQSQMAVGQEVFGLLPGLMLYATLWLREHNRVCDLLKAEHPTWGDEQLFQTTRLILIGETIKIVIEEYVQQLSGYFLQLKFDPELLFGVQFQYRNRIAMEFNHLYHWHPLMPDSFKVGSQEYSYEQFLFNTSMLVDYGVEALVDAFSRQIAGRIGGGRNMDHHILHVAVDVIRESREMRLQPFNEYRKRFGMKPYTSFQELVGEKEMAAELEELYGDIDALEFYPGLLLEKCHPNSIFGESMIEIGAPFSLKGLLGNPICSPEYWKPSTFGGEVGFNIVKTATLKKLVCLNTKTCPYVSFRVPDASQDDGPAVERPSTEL", "test": "Percent inhibition of arachidonic acid induced TXB2 generation in isolated human platelets (Prostaglandin G/H synthase 1 cell assay) at 10 uM", "format": "functional"}, "[2]": {"target": "Prostaglandin G/H synthase 1 (Homo sapiens) (UniProt P23219)", "conditions": "100 uM"}, "[3]": {"target": "T1, Prostaglandin G/H synthase 2 (Homo sapiens, UniProt P35354)", "T1 sequence (P35354 whole entry)": "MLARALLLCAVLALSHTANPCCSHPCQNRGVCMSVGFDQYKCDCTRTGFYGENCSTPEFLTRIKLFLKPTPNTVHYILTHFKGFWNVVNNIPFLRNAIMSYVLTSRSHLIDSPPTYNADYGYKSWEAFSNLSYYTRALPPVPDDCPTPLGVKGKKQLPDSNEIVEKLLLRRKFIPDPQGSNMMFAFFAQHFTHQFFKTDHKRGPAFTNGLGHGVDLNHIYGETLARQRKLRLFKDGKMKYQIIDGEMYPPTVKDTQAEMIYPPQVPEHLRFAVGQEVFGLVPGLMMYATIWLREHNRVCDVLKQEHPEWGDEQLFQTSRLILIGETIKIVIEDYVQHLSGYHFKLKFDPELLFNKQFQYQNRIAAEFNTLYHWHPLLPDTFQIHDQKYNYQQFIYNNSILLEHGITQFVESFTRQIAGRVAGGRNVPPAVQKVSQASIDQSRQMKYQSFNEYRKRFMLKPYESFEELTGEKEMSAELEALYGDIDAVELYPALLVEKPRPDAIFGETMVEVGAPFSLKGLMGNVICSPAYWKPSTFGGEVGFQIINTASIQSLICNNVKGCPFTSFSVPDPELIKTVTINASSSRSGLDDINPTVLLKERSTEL", "test": "Inhibition of PGE-2 generation in LPS-stimulated human monocytes (Prostaglandin G/H synthase 2 assay)"}, "[4]": {"target": "Prostaglandin G/H synthase 1 (Homo sapiens) (UniProt P23219)", "test": "Percent inhibition of arachidonic acid induced TXB2 generation in isolated human platelets (Prostaglandin G/H synthase 1 cell assay) at 10 uM.", "format": "functional"}, "[5]": {"target": "T2, Prostaglandin G/H synthase 2 (Homo sapiens) (UniProt P35354)", "T2 sequence (whole entry)": "T1 sequence (P35354 whole entry)", "test": "% Inhibition of Prostaglandin G/H synthase 2 activity was evaluated at 10 uM concentration, in human whole blood as LPS-induced PGE-2 generation", "format": "functional, tissue-based"}}, "data": [{"smiles": "COC(=O)c1cc2cc(S(C)(=O)=O)ccc2n1Cc1ccc([N+](=O)[O-])cc1", "values": [{"measurement": "inhibition", "setting": "[1]", "value": 0, "unit": "%"}]}, {"smiles": "COC(=O)c1cc2cc(S(C)(=O)=O)ccc2n1Cc1ccc(OC)cc1", "values": [{"measurement": "inhibition", "setting": "[2]", "value": 54, "unit": "%"}, {"measurement": "inhibition", "setting": "[1]", "value": 15, "unit": "%"}]}, {"smiles": "COC(=O)c1cc2cc(S(C)(=O)=O)ccc2n1Cc1ccc(Br)cc1", "values": [{"measurement": "inhibition", "setting": "[1]", "value": 25, "unit": "%"}]}, {"smiles": "COC(=O)c1cc2cc(S(C)(=O)=O)ccc2n1Cc1ccc(Cl)cc1", "values": [{"measurement": "inhibition", "setting": "[2]", "value": 25, "unit": "%"}, {"measurement": "inhibition", "setting": "[1]", "value": 19, "unit": "%"}]}, {"smiles": "COC(=O)c1cc2cc(S(C)(=O)=O)ccc2n1C(=O)c1ccc(Cl)cc1", "values": [{"measurement": "IC50", "setting": "[3]", "value": 730, "unit": "nM"}, {"measurement": "inhibition", "setting": "[4]", "value": 16, "unit": "%"}, {"measurement": "inhibition", "setting": "[5]", "value": "< 25", "unit": "%"}]}, {"smiles": "COC(=O)c1cc2cc(S(C)(=O)=O)ccc2n1C(=O)c1ccc(Br)cc1", "values": [{"measurement": "inhibition", "setting": "[4]", "value": 15, "unit": "%"}]}, {"smiles": "CS(=O)(=O)c1ccc2c(c1)cc(C(=O)O)n2Cc1ccc(Cl)cc1", "values": [{"measurement": "inhibition", "setting": "[1]", "value": 37, "unit": "%"}]}]}
